From US11091441B2, “Solid state crystalline forms of a selective potassium channel modulator” (Xenon Pharmaceuticals Inc., priority 2019, dated 2021)
“And” between values parts separate entries of the source, which are not always exact repeats. Equal values may be shown once.

Tests used:
Assay type in all cases: physicochemical
[1] = Aqueous solubility of solid state forms (with post-solubility pH and XRPD of excess solid); conditions: for pH of the sample post-solubility: after aqueous solubility test; for solid form of excess solid post aqueous solubility analysis (XRPD): excess solid analyzed by XRPD
[2] = Gravimetric Vapour Sorption (GVS), hygroscopicity, with post-GVS XRPD; conditions: for GVS uptake: 25° C.; for solid form post-GVS (XRPD): material analyzed post-GVS by XRPD
Experimental: Approximately 10-20 mg of sample was placed into a mesh vapor sorption balance pan and loaded into an IGASorp Moisture Sorption Analyser balance by Hiden Analytical. The sample was subjected to a ramping profile from 40-90% relative humidity (RH) at 10% increments, maintaining the sample at each step until a stable weight had been achieved (98% step completion, minimum step length 30 minutes, maximum step length 60 minutes) at 25° C. After completion of the sorption cycle, the sample was dried using the same procedure to 0% RH, and finally taken back to the starting point of 40% RH, using the same parameters outlined above. Two complete cycles were performed. The weight change during the sorption/desorption cycles were plotted, allowing for the hygroscopic nature of the sample to be determined.

[3] = Variable temperature XRPD (VT-XRPD): polymorphic form at each temperature
Experimental: VT-XRPD analysis was carried out on a Philips X'Pert Pro Multipurpose diffractometer equipped with a temperature chamber. The samples were loaded onto the VT stage and scanned between 4 and 35.99 °2θ using Cu K radiation (α1 λ=1.54060 Å; α2=1.54443 Å; β=1.39225 Å; α1:α2 ratio=0.5) running in Bragg-Brentano geometry (step size 0.008 °2θ) using 40 kV/40 mA generator settings. Measurements were performed at various temperature profiles. Any holds at specific temperatures are described in the temperature profiles for individual samples.
In another embodiment, VT-XRPD analysis of Compound A Form 11 was carried out using the heating program below in Table 11.

[4] = Carr's index (powder flowability) of micronized material; conditions: micronized to d50≤3 μm and d90≤5 μm; for Flowability: class from Carr's index
Experimental: A widely-used metric for how well a powder flows is Carr's index (see, for example, Wang, Y. B. and Williams, R. O. III, “Powders” in Remington: Essentials of Pharmaceutics, Felton, L., ed., London: Pharmaceutical Press, 2013 at pp. 422-423). The bulk density of a powder is measured, along with its corresponding tapped density (after allowing the powder to be compressed in a standard tap density tester, such as the Gardco JV1000, Paul N. Gardner Company, Pompano Beach, Fla., according to a standard method such as that described in Chapter 616 of the United States Pharmacopeia). Once the bulk and tapped densities of a powder have been determined experimentally, Carr's index can be calculated from the following equation: Carr's index=(tapped density−bulk density)/tapped density×100.

[5] = Stability studies: seeded slurry trials, XRPD of the solid; conditions: substance used as seed material
Experimental: Samples of the Compound A Form slurries and the Compound A Form 11 slurries were taken for XRPD analysis after 24 hours at 40° C., after 2 hours at 5° C. and after 24 hours at 5° C.

[6] = 25° C., final scan after cooling from the top temperature

pH of the sample post-solubility [1] | solid form of excess solid post aqueous solubility analysis (XRPD) [1] | hygroscopicity by GVS analysis [2] | solid form post-GVS (XRPD) [2] | VT-XRPD Polymorphic Form [3, 6] | VT-XRPD Polymorphic Form ([3]; 25° C., initial scan) | VT-XRPD Polymorphic Form ([3]; 50° C.) | VT-XRPD Polymorphic Form ([3]; 100° C.) | VT-XRPD Polymorphic Form ([3]; 160° C.) | VT-XRPD Polymorphic Form ([3]; 165° C.) | VT-XRPD Polymorphic Form ([3]; 170° C.) | VT-XRPD Polymorphic Form ([3]; 180° C.) | aqueous solubility [1] | GVS uptake ([2]; at 90% RH) | Carr's index [4] | Flowability [4] | Solid after 2 hours at 5° C. (XRPD) ([5]; slurry in 1-Propanol) | Solid after 24 hours at 5° C. (XRPD) ([5]; slurry in 1-Propanol) | Solid after 2 hours at 5° C. (XRPD) ([5]; slurry in Ethanol) | Solid after 24 hours at 5° C. (XRPD) ([5]; slurry in Ethanol) | SMILES | other results
6.4 | Compound A Form 2 | slightly hygroscopic | Compound A Form 2 | Amorphous | Form 2 | Form 2 | Form 2 | Partially crystalline | Partially crystalline | Amorphous | Amorphous |  |  |  |  |  |  |  |  | Cc1cc(N2CCc3cc(F)ccc3C2)cc(C)c1NC(=O)CC(C)(C)C [Compound A Form 2, N-(4-(6-fluoro-3,4-dihydroisoquinolin-2(1H)-yl)-2,6-dimethylphenyl)-3,3-dimethylbutanamide] | solubility ([1]; water, thermodynamic from solid): < 100 µg/mL; GVS uptake ([2]; between 0-90% RH): 0.37%; VT-XRPD Polymorphic Form ([3]; 180° C. (post 10 minute hold)): Amorphous
7.3 | converted to Compound A Form 4 | slightly hygroscopic | Compound A Form 9 | Amorphous | Form 9 | Form 9 | Form 9 |  | Partially crystalline | Partially crystalline | Amorphous | < 100 µg/mL | 0.8% |  |  |  |  |  |  | Cc1cc(N2CCc3cc(F)ccc3C2)cc(C)c1NC(=O)CC(C)(C)C [Compound A Form 9, N-(4-(6-fluoro-3,4-dihydroisoquinolin-2(1H)-yl)-2,6-dimethylphenyl)-3,3-dimethylbutanamide] | VT-XRPD Polymorphic Form ([3]; 150° C.): Form 9; VT-XRPD Polymorphic Form ([3]; 155° C.): Form change noted-Similar to Form 9
 |  |  |  |  |  |  |  |  |  |  |  |  |  | 36 | very poor |  |  |  |  | Cc1cc(N2CCc3cc(F)ccc3C2)cc(C)c1NC(=O)CC(C)(C)C [Compound A, N-(4-(6-fluoro-3,4-dihydroisoquinolin-2(1H)-yl)-2,6-dimethylphenyl)-3,3-dimethylbutanamide] | 

SMILES | pH of the sample post-solubility [1] | solid form of excess solid post aqueous solubility analysis (XRPD) [1] | hygroscopicity by GVS analysis [2] | solid form post-GVS (XRPD) [2] | VT-XRPD Polymorphic Form [3, 6] | VT-XRPD Polymorphic Form ([3]; 25° C., initial scan) | VT-XRPD Polymorphic Form ([3]; 50° C.) | VT-XRPD Polymorphic Form ([3]; 100° C.) | VT-XRPD Polymorphic Form ([3]; 160° C.) | VT-XRPD Polymorphic Form ([3]; 165° C.) | VT-XRPD Polymorphic Form ([3]; 170° C.) | VT-XRPD Polymorphic Form ([3]; 180° C.) | aqueous solubility [1] | GVS uptake ([2]; at 90% RH) | Carr's index [4] | Flowability [4] | Solid after 2 hours at 5° C. (XRPD) ([5]; slurry in 1-Propanol) | Solid after 24 hours at 5° C. (XRPD) ([5]; slurry in 1-Propanol) | Solid after 2 hours at 5° C. (XRPD) ([5]; slurry in Ethanol) | Solid after 24 hours at 5° C. (XRPD) ([5]; slurry in Ethanol) | other results
Cc1cc(N2CCc3cc(F)ccc3C2)cc(C)c1NC(=O)CC(C)(C)C [Compound A Form 4, N-(4-(6-fluoro-3,4-dihydroisoquinolin-2(1H)-yl)-2,6-dimethylphenyl)-3,3-dimethylbutanamide] | 6.3 and 4.9 | mixture of Compound A Form 4 and Compound A Form 11 | slightly hygroscopic | Compound A Form 4 | Form 9 | Form 4 | Form 4 | Form 4 |  |  |  |  | < 100 µg/mL | 0.4% | 8 | excellent | Form 4 | Form 4 | Form 4 | Form 4 | VT-XRPD Polymorphic Form ([3]; 60° C.): Form 4; VT-XRPD Polymorphic Form ([3]; 70° C.): Form 4; VT-XRPD Polymorphic Form ([3]; 80° C.): Form 4; VT-XRPD Polymorphic Form ([3]; 95° C.): Form 4; VT-XRPD Polymorphic Form ([3]; 110° C. (5 minute hold)): Form 4 +; VT-XRPD Polymorphic Form ([3]; 120° C. (5 minute hold)): Form 4 +; VT-XRPD Polymorphic Form ([3]; 130° C. (5 minute hold)): Form 4 +; VT-XRPD Polymorphic Form ([3]; 140° C. (5 minute hold)): Form 9; Solid after 24 hours at 40° C. (XRPD) ([5]; slurry in 1-Propanol): Form 2 + 4; Solid after 24 hours at 40° C. (XRPD) ([5]; slurry in Ethanol): Form 4
Cc1cc(N2CCc3cc(F)ccc3C2)cc(C)c1NC(=O)CC(C)(C)C [Compound A Form 11, N-(4-(6-fluoro-3,4-dihydroisoquinolin-2(1H)-yl)-2,6-dimethylphenyl)-3,3-dimethylbutanamide] |  |  | slightly hygroscopic | mixture of Compound A Form 4 and Compound A Form 11 | Amorphous | Form 11 | Form 11 | Form 11 | Partially crystalline | Partially crystalline | Partially crystalline | Partially crystalline |  | 0.5% |  |  | Form 4 | Form 4 | Form 4 | Form 4 | VT-XRPD Polymorphic Form ([3]; 150° C.): Form change; VT-XRPD Polymorphic Form ([3]; 155° C.): Partially crystalline; VT-XRPD Polymorphic Form ([3]; 190° C.): Amorphous; Solid after 24 hours at 40° C. (XRPD) ([5]; slurry in Ethanol): Form 2
